Key:
Conditions in all cases: incubation time: 72 h
BT-474 [1] = assay: normalised viability (% of control), CellTiter-Blue; higher = more viable cells (about 100 = DMSO control)
Method: (§1)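 DSRT, CellTiter-Blue viability, 72 h incubation. Signal is normalised to DMSO and benzethonium chloride controls. Value is the normalised response at dose 3.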

BT-549 [2] = assay: as above
Method: as §1

CAL-120 = assay: as above
Method: as §1

CAL-148 = assay: as above
Method: as §1

CAL-51 [3] = assay: as above
Method: as §1

CAL-85-1 [4] = assay: as above
Method: as §1

DU-4475 [5] = assay: as above
Method: as §1

HCC1143 [6] = assay: as above
Method: as §1

HCC1599 [7] = assay: as above
Method: as §1

HCC1937 = assay: as above
Method: as §1

HDQ-P1 = assay: as above
Method: as §1

Hs578T = assay: as above
Method: as §1

MDA-MB-231 [8] = assay: as above
Method: as §1

MDA-MB-436 [9] = assay: as above
Method: as §1

MDA-MB-453 [10] = assay: as above
Method: as §1

MDA-MB-468 [11] = assay: as above
Method: as §1

MFM-223 = assay: as above
Method: as §1

SK-BR-3 [12] = assay: as above
Method: as §1

MDA-MB-453 [13] = assay: normalised viability (% of control), CellTiter-Blue; higher = more viable cells (about 100 = DMSO control); remark: listed apart in the source
Procedure, shortened: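 Seeded at 20 µl suspension per well onto compound-loaded 384-well plates, breast cancer cell lines were incubated 72 h. CellTiter-Blue fluorescence at 560/590 nm was then read, with each plate normalised to vehicle (100) and a positive kill control (0). Normalised viability is reported at a single listed concentration of the series.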

BT-474 [14] = assay: normalised viability (% of control), CellTiter-Blue; higher = more viable cells (100 = DMSO, 0 = benzethonium chloride kill control)
Method: (§2)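 DSRT, CellTiter-Blue viability, 72 h incubation. Signal is normalised to DMSO and benzethonium chloride controls. Value is the normalised response at dose 1.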

BT-549 [15] = assay: as above
Method: as §2

CAL-51 [16] = assay: as above
Method: as §2

CAL-85-1 [17] = assay: as above
Method: as §2

DU-4475 [18] = assay: as above
Method: as §2

HCC1143 [19] = assay: as above
Method: as §2

HCC1599 [20] = assay: as above
Method: as §2

MDA-MB-231 [21] = assay: as above
Method: as §2

MDA-MB-436 [22] = assay: as above
Method: as §2

MDA-MB-453 [23] = assay: as above
Method: as §2

MDA-MB-468 [24] = assay: as above
Method: as §2

SK-BR-3 [25] = assay: as above
Method: as §2

## C=CC(=O)N1CCC[C@@H](n2nc(-c3ccc(Oc4ccccc4)cc3)c3c(N)ncnc32)C1
BT-474 [1]; 10 nM
  normalised viability: 84.3%
BT-549 [2]; 10 nM
  normalised viability: 97.9%
CAL-120; 10 nM
  normalised viability: 83.5%
CAL-148; 1 nM
  normalised viability: 99.5%
CAL-51 [3]; 1 nM
  normalised viability: 95%
CAL-85-1 [4]; 1 nM
  normalised viability: 96.2%
DU-4475 [5]; 1 nM
  normalised viability: 92.8%
HCC1143 [6]; 10 nM
  normalised viability: 79.6%
HCC1599 [7]; 10 nM
  normalised viability: 85.6%
HCC1937; 10 nM
  normalised viability: 108%
HDQ-P1; 1 nM
  normalised viability: 111%
Hs578T; 10 nM
  normalised viability: 99.8%
MDA-MB-231 [8]; 10 nM
  normalised viability: 90.3%
MDA-MB-436 [9]; 10 nM
  normalised viability: 88.2%
MDA-MB-453 [10]; 1 nM
  normalised viability: 94.4%
MDA-MB-468 [11]; 10 nM
  normalised viability: 102%
MFM-223; 10 nM
  normalised viability: 91.1%
SK-BR-3 [12]; 10 nM
  normalised viability: 57.9%
MDA-MB-453 [13]; 100 nM
  normalised viability: 39.5%
BT-474 [14]; 0.1 nM
  normalised viability: 107%
BT-549 [15]; 0.1 nM
  normalised viability: 118%
CAL-51 [16]; 0.1 nM
  normalised viability: 93.1%
CAL-85-1 [17]; 0.1 nM
  normalised viability: 86.1%
DU-4475 [18]; 0.1 nM
  normalised viability: 94.8%
HCC1143 [19]; 0.1 nM
  normalised viability: 88.1%
HCC1599 [20]; 0.1 nM
  normalised viability: 105%
MDA-MB-231 [21]; 0.1 nM
  normalised viability: 101%
MDA-MB-436 [22]; 0.1 nM
  normalised viability: 91%
MDA-MB-453 [23]; 0.1 nM
  normalised viability: 103%
MDA-MB-468 [24]; 0.1 nM
  normalised viability: 103%
SK-BR-3 [25]; 0.1 nM
  normalised viability: 90.7%

## CC(=O)Nc1cccc(-n2c(=O)n(C3CC3)c(=O)c3c(Nc4ccc(I)cc4F)n(C)c(=O)c(C)c32)c1
BT-474 [1]; 2.5 nM
  normalised viability: 119%
BT-549 [2]; 2.5 nM
  normalised viability: 104%
CAL-120; 2.5 nM
  normalised viability: 99.4%
CAL-148; 0.25 nM
  normalised viability: 107%
CAL-51 [3]; 0.25 nM
  normalised viability: 90.4%
CAL-85-1 [4]; 0.25 nM
  normalised viability: 97.3%
DU-4475 [5]; 0.25 nM
  normalised viability: 101%
HCC1143 [6]; 2.5 nM
  normalised viability: 86.7%
HCC1599 [7]; 2.5 nM
  normalised viability: 84.6%
HCC1937; 2.5 nM
  normalised viability: 102%
HDQ-P1; 0.25 nM
  normalised viability: 103%
Hs578T; 2.5 nM
  normalised viability: 94.9%
MDA-MB-231 [8]; 2.5 nM
  normalised viability: 57.7%
MDA-MB-436 [9]; 2.5 nM
  normalised viability: 92.8%
MDA-MB-453 [10]; 0.25 nM
  normalised viability: 106%
MDA-MB-468 [11]; 2.5 nM
  normalised viability: 105%
MFM-223; 2.5 nM
  normalised viability: 90.6%
SK-BR-3 [12]; 2.5 nM
  normalised viability: 92.7%
MDA-MB-453 [13]; 25 nM
  normalised viability: 71.8%
BT-474 [14]; 0.025 nM
  normalised viability: 100%
BT-549 [15]; 0.025 nM
  normalised viability: 104%
CAL-51 [16]; 0.025 nM
  normalised viability: 98.7%
CAL-85-1 [17]; 0.025 nM
  normalised viability: 107%
DU-4475 [18]; 0.025 nM
  normalised viability: 105%
HCC1143 [19]; 0.025 nM
  normalised viability: 102%
HCC1599 [20]; 0.025 nM
  normalised viability: 104%
MDA-MB-231 [21]; 0.025 nM
  normalised viability: 105%
MDA-MB-436 [22]; 0.025 nM
  normalised viability: 101%
MDA-MB-453 [23]; 0.025 nM
  normalised viability: 107%
MDA-MB-468 [24]; 0.025 nM
  normalised viability: 112%
SK-BR-3 [25]; 0.025 nM
  normalised viability: 135%

## CCc1cncnc1N1CCN(Cc2nc3ccc(C(F)(F)F)cc3[nH]2)CC1
BT-474 [1]; 100 nM
  normalised viability: 123%
BT-549 [2]; 100 nM
  normalised viability: 88.2%
CAL-120; 100 nM
  normalised viability: 105%
CAL-148; 10 nM
  normalised viability: 107%
CAL-51 [3]; 10 nM
  normalised viability: 87%
CAL-85-1 [4]; 10 nM
  normalised viability: 96.3%
DU-4475 [5]; 10 nM
  normalised viability: 94.2%
HCC1143 [6]; 100 nM
  normalised viability: 132%
HCC1599 [7]; 100 nM
  normalised viability: 86.2%
HCC1937; 100 nM
  normalised viability: 104%
HDQ-P1; 10 nM
  normalised viability: 116%
Hs578T; 100 nM
  normalised viability: 96.4%
MDA-MB-231 [8]; 100 nM
  normalised viability: 91.6%
MDA-MB-436 [9]; 100 nM
  normalised viability: 99.8%
MDA-MB-453 [10]; 10 nM
  normalised viability: 98.8%
MDA-MB-468 [11]; 100 nM
  normalised viability: 117%
MFM-223; 100 nM
  normalised viability: 103%
SK-BR-3 [12]; 100 nM
  normalised viability: 98.2%
MDA-MB-453 [13]; 1000 nM
  normalised viability: 96.5%
BT-474 [14]; 1 nM
  normalised viability: 102%
BT-549 [15]; 1 nM
  normalised viability: 98.2%
CAL-51 [16]; 1 nM
  normalised viability: 90.8%
CAL-85-1 [17]; 1 nM
  normalised viability: 99%
DU-4475 [18]; 1 nM
  normalised viability: 93.2%
HCC1143 [19]; 1 nM
  normalised viability: 103%
HCC1599 [20]; 1 nM
  normalised viability: 82.6%
MDA-MB-231 [21]; 1 nM
  normalised viability: 96.8%
MDA-MB-436 [22]; 1 nM
  normalised viability: 106%
MDA-MB-453 [23]; 1 nM
  normalised viability: 101%
MDA-MB-468 [24]; 1 nM
  normalised viability: 109%
SK-BR-3 [25]; 1 nM
  normalised viability: 88.8%

Source: the supplement of paper PMC4862054
